In patent publication US7273856B2, “Linear basic compounds having NK-2 antagonist activity and formulations thereof” (Menarini Ricerche S.P.A., priority 2001, dated 2007):
Structures can show the parent of a compound that is named as a salt.

Each compound was assayed against T1, human NK-2 receptor (Homo sapiens, UniProt P21452) (assay: binding test, affinity for the human NK-2 receptor, competition with [125I]NKA on transfected CHO cell membranes). Details: CHO cell membranes transfected with NK-2 receptor of human ileum; [125I]NKA 100 pM; 30 min, 20° C.
T1 construct: expressed in transfected cells; host or cells: CHO (Chinese hamster ovary) cells, membranes
T1 sequence (P21452 1-398): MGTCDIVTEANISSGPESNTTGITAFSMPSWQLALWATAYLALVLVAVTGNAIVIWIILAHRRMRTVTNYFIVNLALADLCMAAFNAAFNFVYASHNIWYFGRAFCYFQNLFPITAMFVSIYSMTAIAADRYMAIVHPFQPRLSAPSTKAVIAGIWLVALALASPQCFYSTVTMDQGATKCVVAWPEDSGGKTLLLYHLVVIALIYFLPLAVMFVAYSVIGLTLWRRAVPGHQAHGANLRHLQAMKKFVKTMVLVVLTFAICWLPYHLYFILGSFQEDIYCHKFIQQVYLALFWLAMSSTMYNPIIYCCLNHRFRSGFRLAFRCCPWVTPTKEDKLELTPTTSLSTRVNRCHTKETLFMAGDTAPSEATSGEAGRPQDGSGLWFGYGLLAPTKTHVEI
Method: The evaluation of the antagonist activity on NK-2 receptors has been assessed by binding and functional tests according to that already described in literature in relation to NK-2 antagonists.
The test substances have been tested within a concentration range from 0.01 nM to 10 nM. At the end of the incubation time (30 min, 20° C.) the samples have been filtered and radioactivity has been determined using a gamma-counter.

pKi	Ki [nM]	SMILES
9.1	–	O=C(NC1(C(=O)N[C@H](Cc2ccccc2)C(=O)NCCCN2CCOCC2)CCCCC1)c1cc2ccccc2s1 [Example 20, N^α[N^α(benzo[b]thiophen-2-yl-carbonyl)-1-aminocyclohexan-1-carboxy]-D-phenylalanine-N-[3(morpholin-4-yl)propyl]amide]
–	0.0501	NC1CCCCC1NC(=O)C1CCCC(NC(=O)[C@H](Cc2ccccc2)NC(=O)C2(NC(=O)c3cc4ccccc4s3)CCCC2)C1 (stereo partly drawn) [Example 26, acid-3-cis-N^γ{N^α[N^α(benzo[b]thiophen-2-ylcarbonyl)-1-aminocyclopentane-1-carboxy]-L-phenylalanil}aminocyclohexane-1-carboxylic-N-(2-cis-aminocyclohexyl) amide]
–	0.0631	N[C@@H]1CCCC[C@H]1NC(=O)[C@@H]1C[C@@H](NC(=O)[C@@H](Cc2ccccc2)NC(=O)C2(NC(=O)c3cc4ccccc4s3)CCCCC2)CN1 [Example 27, N^γ{N^α[N^α(benzo[b]thiophen-2-ylcarbonyl)-1-aminocyclohexane-1-carboxy]-D-phenylalanil}-(L-(4R)amino-proline-N-(1R,2R)-aminocyclohexyl) amide]
–	0.1	N[C@@H]1CCCC[C@@H]1NC(=O)C1CCCC(NC(=O)[C@@H](Cc2ccccc2)NC(=O)C2(NC(=O)c3cc4ccccc4s3)CCCC2)C1 (stereo partly drawn) [Example 30, acid-3-cis-N^γ{N^α[N^α(benzo[b]thiophen-2-ylcarbonyl)-1-aminocyclopentane-1-carboxy]-D-phenylalanil}aminocyclohexane-1-carboxylic-N-[(1S,2R)-aminocyclohexyl]amide]
–	0.0794	N[C@H]1CCCC[C@@H]1NC(=O)C1CCCC(NC(=O)[C@@H](Cc2ccccc2)NC(=O)C2(NC(=O)c3cc4ccccc4s3)CCCC2)C1 (stereo partly drawn) [Example 31, acid-3-cis-N^γ{N^α[N^α(benzo[b]thiophen-2-ylcarbonyl)-1-aminocyclopentan-1-carboxy]-D-phenylalanil}aminocyclohexan-1-carboxylic-N-[(1S,2S)-aminocyclohexyl]amide]
–	1.26	CN1CCN(C[C@@H]2CC[C@H](NC(=O)[C@@H](Cc3ccccc3)NC(=O)C3(NC(=O)c4cc5ccccc5s4)CCCC3)C2)CC1 [Example 32]
–	0.631	CN1CCN(C(=O)[C@@H]2CC[C@H](NC(=O)[C@@H](Cc3ccccc3)NC(=O)C3(NC(=O)c4cc5ccccc5s4)CCCC3)C2)CC1 [Example 33, N^α[N^α(benzo[b]thiophen-2-ylcarbonyl)-1-aminocyclopentan-1-carboxy]-D-phenylalanine amide-N-[(1S,3R)-3-(4-(methyl)piperazin-1-yl)carbonyl)cyclopentane]
–	1.26	C[C@](Cc1ccccc1)(NC(=O)c1cc2ccccc2s1)C(=O)N[C@H](Cc1ccccc1)C(=O)NCCCN1CCOCC1 [Example 34, N^α[N^α(benzo[b]thiophen-2-ylcarbonyl)-D-α-methylphenylalanil]-D-phenylalanine-N-[3-(morpholin-4-yl)propyl]amide]
9.5	–	N[C@H]1CCCC[C@@H]1NC[C@@H]1CC[C@H](NC(=O)[C@@H](Cc2ccccc2)NC(=O)C2(NC(=O)c3cc4ccccc4s3)CCCC2)C1 [Example 38]
–	0.794	O=C(C=Cc1ccc(Cl)c(Cl)c1)NC1(C(=O)N[C@H](Cc2ccccc2)C(=O)NCCCN2CCOCC2)CCCC1 [Example 44, 1-[3-(3,4-dichlorophenyl)-acryloylamino]-cyclopentanecarboxylic acid, [1-(3-morpholin-4-yl-propylcarbamoyl)-2-(R)-phenyl-ethyl]-amide]
–	0.398	CC1CN(CCCNC(=O)[C@@H](Cc2ccccc2)NC(=O)C2(NC(=O)c3cc4ccccc4s3)CCCCC2)CC(C)O1 (stereo partly drawn) [Example 48, Benzo[b]thiophene-2-carboxylic acid (1-{1-[3-(2,6-dimethyl-morpholin-4-yl)-propylcarbamoyl]-2-(R)-phenyl-ethylcarbamoyl}-cyclohexyl)-amide]
–	0.398	O=C(C=Cc1ccc(Br)c(Br)c1)NC1(C(=O)N[C@H](Cc2ccccc2)C(=O)NCCCN2CCOCC2)CCCC1 [Example 50, 1-[3-(3,4-dibromophenyl)-acryloylamino]-cyclopentanecarboxylic acid [1-(3-morpholin-4-yl-propylcarbamoyl)-2-(R)-phenyl-ethyl]-amide]
–	2	CN1CCCN(CCCNC(=O)[C@@H](Cc2ccccc2)NC(=O)C2(NC(=O)c3cc4ccccc4s3)CCCC2)CC1 [Example 52, Benzo[b]thiophen-2-carboxylic acid, (1-{1(R)-[3-(4-methyl-[1,4]diazepan-1-yl)-propylcarbamoyl]-2-phenylethylcarbamoyl}-cyclopentyl)-amide TFA salt]
–	2.51	COC1CCN(CCCNC(=O)[C@@H](Cc2ccccc2)NC(=O)C2(NC(=O)c3cc4ccccc4s3)CCCC2)CC1 [Example 53, Benzo[b]thiophene-2-carboxylic acid (1-{1(R)-[3-(4-methoxy-piperidin-1-yl)-propylcarbamoyl]-2-phenyl-ethylcarbamoyl}-cyclopentyl)-amide TFA salt]
–	1	O=C(NC1(C(=O)N[C@H](Cc2ccccc2)C(=O)NCCCN2CCC3(CC2)OCCO3)CCCC1)c1cc2ccccc2s1 [Example 55, Benzo[b]thiophene-2-carboxylic acid (1-{1(R)-[3-(1,4-dioxa-8-aza-spiro[4.5]dec-8-yl)-propylcarbamoyl]-2-phenyl-ethylcarbamoyl}-cyclopentyl)-amide TFA salt]
–	1.58	C[C@@H]1CN(C(=O)CCNC(=O)[C@@H](Cc2ccccc2)NC(=O)C2(NC(=O)c3cc4ccccc4s3)CCCC2)C[C@H](C)N1 [Example 56, Benzo[b]thiophene-2-carboxylic acid (1-{1(R)-[3-(3,5-cis-dimethylpiperazin-1-yl)-3-oxo-propylcarbamoyl]-2-phenyl-ethylcarbamoyl}-cyclopentyl)-amide TFA salt]
–	3.16	O=C(NC1(C(=O)N[C@H](Cc2ccccc2)C(=O)NCCC(=O)N2CCN(c3ccccn3)CC2)CCCC1)c1ccc2cc(Br)ccc2c1 [Example 58, 6-Bromo-naphthalene-2-carboxylic acid (1-{1(R)-[3-oxo-3-(4-pyridin-2-yl-piperazin-1-yl)propylcarbamoyl]-2-phenyl-ethylcarbamoyl}-cyclopentyl)-amide TFA salt]
–	2	O=C(NC1(C(=O)N[C@H](Cc2ccccc2)C(=O)NCCC(=O)N2CCN(CC3COCOC3)CC2)CCCC1)c1cc2ccccc2s1 [Example 62, Benzo[b]thiophene-2-carboxylic acid (1-{1(R)-[3-(4-[1,3]dioxan-5-ylmethyl-piperazin-1-yl)3-oxo-propylcarbamoyl]-2-phenyl-ethylcarbamoyl}-cyclopentyl)-amide TFA salt]
–	0.631	NC1(C(=O)N2CCC(CNC(=O)[C@@H](Cc3ccccc3)NC(=O)C3(NC(=O)c4cc5ccccc5s4)CCCC3)CC2)CCCC1 [Example 63, Benzo[b]thiophene-2-carboxylic acid [1-(1(R)-{[1-(1-amino-cyclopentanecarbonyl)piperidin-4-ylmethyl]-carbamoyl}-2-phenyl-ethylcarbamoyl)-cyclopentyl]-amide]
–	1	N#CCN1CCN(C(=O)CCNC(=O)[C@@H](Cc2ccccc2)NC(=O)C2(NC(=O)c3cc4ccccc4s3)CCCC2)CC1 [Example 65, Benzo[b]thiophene-2-carboxylic acid (1-{1(R)-[3-(4-cyanomethyl-piperazin-1-yl)-3-oxo-propylcarbamoyl]-2-phenyl-ethylcarbamoyl}-cyclopentyl)-amide]
–	1.26	O=C(NC1(C(=O)N[C@H](Cc2ccccc2)C(=O)NC2CCN(CCC3CCOCC3)CC2)CCCC1)c1cc2ccccc2s1 [Example 68, Benzo[b]thiophene-2-carboxylic acid [1-(2-phenyl-1(R)-{1-[2-(tetrahydro-pyran-4-yl)-ethyl]-piperidin-4-ylcarbamoyl}-ethylcarbamoyl)-cyclopentyl]-amide TFA salt]
–	1.58	CC(C)N1CCC(CNC(=O)[C@@H](Cc2ccccc2)NC(=O)C2(NC(=O)c3cc4ccccc4s3)CCCC2)CC1 [Example 70, Benzo[b]thiophene-2-carboxylic acid (1-{1-(R)-[(1-isopropyl-piperidin-4-ylmethyl)-carbamoyl]-2-phenyl-ethylcarbamoyl}-cyclopentyl)-amide]
10.0	–	O=C(NC1(C(=O)N[C@H](Cc2ccccc2)C(=O)NCC2CCN(CC3CCOCC3)CC2)CCCC1)c1ccc2cc(Br)ccc2c1 [Example 72, 6-Bromo-naphthalene-2-carboxylic acid [1-(2-phenyl-1(R)-{[-(tetrahydro-pyran-4-ylmethyl)-piperidin-4-ylmethyl]-carbamoyl}-ethylcarbamoyl)-cyclopentyl]-amide]
–	1	CCN1CCC(CNC(=O)[C@@H](Cc2ccccc2)NC(=O)C2(NC(=O)c3ccc4cc(Br)ccc4c3)CCCC2)CC1 [Example 76, 6-Bromo-naphthalene-2-carboxylic acid (1-{1(R)-[(1-ethyl-piperidin-4-ylmethyl)-carbamoyl]-2-phenyl-ethylcarbamoyl}-cyclopentyl)-amide]

SMILES	pKi	Ki [nM]
O=C(N[C@]1(C(=O)N[C@H](Cc2ccccc2)C(=O)NCCCN2CCOCC2)CCc2ccccc21)c1cc2ccccc2s1 [Example 23, N^α[N^α(benzo[b]thiophen-2-ylcarbonyl)-1-(R)-amino-indan-1-carboxy]-D-phenylalanine-N-[3(morpholin-4-yl)propyl]amide]	–	2
